What was measured:
MCF-7 cells = test: Total cellular platinum uptake (ICP OES); format: cell-based, human; conditions: MCF-7, 4 h exposure, 10 µM
Description: It is necessary to strongly emphasize that the underlined values have a statistically significant lack of variance homogeneity (Fisher–Snedecor’s F-test, Fα/2) with respect to reference drug variance, so Aspin–Welch’s t-test was applied in these cases. […] For ionic compound 8, platinum uptake value was not determined due to Pt concentrations in the cell lysates being below the instrument detection limit (IDL = 10 μg/kg) specified by the manufacturer for the device used.
Cultured MCF-7 cells were seeded at a density of 4 × 10^5 cells/well of culture medium on a 6-well plate (Corning, NY, USA) to a final volume of 2.5 mL. […] The wells without MCF-7 cells were filled with 1 mL of culture medium-containing compound tested to act as a reference for nonspecific platinum complex adsorption on the surface of the well. After incubation, all wells were washed twice with 2 mL of cold PBS, filled with 400 μL of hot (ca 90 °C) 65% nitric acid, and maintained to stand for 2 h. All wells were finally filled with 1600 μL of water and this solution was collected and analyzed using iCAP 7400 Duo ICP OES instrument (Thermo Fisher Scientific) using the plasma axial view (10 s) at λ = 265.945 nm. The amount of Pt per cell was calculated by subtracting the amount of Pt found in the blank well from the amount of Pt found in the cell-containing wells and normalized to the average number of cells per well. The mean and SD values were calculated on the basis of 4 measurements.

[1] = logP by shake-flask method (n-octanol / 0.9% NaCl, Pt by ICP-OES); format: physicochemical; conditions: octanol/water, n = 4
Description: An important factor for the pharmacokinetics and the cellular accumulation of the investigated complexes, their lipophilicity was determined by measuring octanol/water partition coefficients (logP) with the shake-flask method. The logP determination was carried out based on a previously described procedure, modified by us to obtain more accurate and repeatable results.
Weighted amounts of the tested platinum complex were suspended by 10 min sonification in 0.9% NaCl water solution, which was previously saturated with n-octanol, and mixed by shaking for 1 h. A simultaneously similar procedure was performed using 5 mL of n-octanol pre-saturated with 0.9% NaCl. Afterward, both suspensions were mixed together, shaken for an additional 1 h, and centrifuged for 5 min. After phase separation and evaporation in vacuo of 1 mL of sample to dryness, the final concentration of Pt was determined by ICP-OES (λ = 265.945 nm) and the partition coefficients were calculated. For the analysis, all samples were dissolved 1:1000 in 2.5% HCl. Each measurement was repeated four times and the final logP was calculated as the arithmetic mean of the four values.

[2] = system: BALB/3T3 (murine embryonic fibroblast); test: In vitro cytotoxicity, sulforhodamine B assay, normal cells; format: cell-based; conditions: for IC50: BALB/3T3 normal cells, normoxia, 72 h
Description: (§1) Determination of the cytotoxic activity of compounds tested was performed separately in the normoxia or hypoxia conditions to reveal their potentially bioreductive properties. The experiment was carried out on three human cancer cell lines: MCF-7 breast, ES-2 ovarian and A549 lung adenocarcinoma as well as normal murine embryonic fibroblast BALB/3T3 cell line. In order to facilitate the preparation of solutions of the tested compounds, their initial solutions for dilution were made by dissolving the compounds in acetone.
(§2) All cell lines were exposed to each compound tested at four different concentrations for 72 h. […] Additionally, all cell lines were exposed to acetone (Avantor Performance Materials, Gliwice, Poland) (the solvent used for tested compounds) at concentrations corresponding to those present in tested compounds’ dilutions.
After 72 h of cell incubation with the compounds tested, the sulforhodamine B (SRB) assay was performed as described by Shekan et al. with minor modifications. The cells were fixed in situ by adding 50 µL per well of cold 50% trichloroacetic acid (Avantor Performance Materials, Gliwice, Poland) and were incubated at 4 °C for one hour. Following that, wells were washed five times with water and air dried. Next, 50 µL of 0.4% solution of sulforhodamine B (Sigma-Aldrich, Steinheim, Germany) in 1% acetic acid (Avantor Performance Materials, Gliwice, Poland) were added to each well and plates were incubated at room temperature for 0.5 h. After incubation time, the unbound dye was removed by washing plates five times with 1% acetic acid, whereas stains bound to cells was solubilized with 10 mM Tris base (Sigma-Aldrich, Steinheim, Germany). The absorbance of each solution was read by the Multiskan RC photometer (Labsystems Diagnostics Oy, Vantaa, Finland) at a 540 nm wavelength. […] IC50 values were calculated for each experiment on the basis of four different concentrations using Cheburator software, as described by Nevozhay. The tested compounds at each concentration were tested in triplicates in a single experiment and each experiment was repeated at least three times independently.

[3] = system: A549 (lung adenocarcinoma); test: In vitro cytotoxicity, sulforhodamine B assay; format: cell-based, human; conditions: for IC50 ± SD / IC50: 72 h
Description: as §1, with “acetone. For this purpose, it was not possible to use more polar aprotic solvents (DMSO, DMF) due to the rapid isomerization of some of the tested complexes under their influence.” for “acetone.”
All the cell lines were cultured at 37 °C in a humid atmosphere containing 5% CO2. Additionally, in the case of cytotoxicity assay with hypoxic conditions, the cells (MCF-7, ES-2, A549) were maintained at 37 °C in a humid atmosphere containing 5% CO2 and 1% O2 during the entire experiment.
as §2, with “Twenty-four hours before adding the tested compounds, all cell lines were seeded in 96-well plates ([…] AG & Co, Nümbrecht Germany) in an appropriate media with 10^4 cells per well. All” for “All”
After 72 h of cell incubation with the compounds tested, the sulforhodamine B (SRB) assay was performed as described by Shekan et al. with minor modifications. The cells were fixed in situ by adding 50 µL per well of cold 50% trichloroacetic acid (Avantor Performance Materials, Gliwice, Poland) and were incubated at 4 °C for one hour. Following that, wells were washed five times with water and air dried. Next, 50 µL of 0.4% solution of sulforhodamine B (Sigma-Aldrich, Steinheim, Germany) in 1% acetic acid (Avantor Performance Materials, Gliwice, Poland) were added to each well and plates were incubated at room temperature for 0.5 h. After incubation time, the unbound dye was removed by washing plates five times with 1% acetic acid, whereas stains bound to cells was solubilized with 10 mM Tris base (Sigma-Aldrich, Steinheim, Germany). The absorbance of each solution was read by the Multiskan RC photometer (Labsystems Diagnostics Oy, Vantaa, Finland) at a 540 nm wavelength. Results are presented as mean IC50 (concentration of the compound tested that inhibits cell proliferation by 50%) ± standard deviation. IC50 values were calculated for each experiment on the basis of four different concentrations using Cheburator software, as described by Nevozhay. The tested compounds at each concentration were tested in triplicates in a single experiment and each experiment was repeated at least three times independently.

logP ± SD [1] | Compound | Total Cellular Platinum Uptake in MCF-7 Cells (± SD) (MCF-7 cells) [ng Pt/10^6 Cells] | IC50 [2] [µM] | IC50 ± SD ([3]; A549, hypoxia (1% O2)) | IC50 ([3]; A549, normoxia) [µM] | selectivity index (SI; ratio of cytotoxic concentration for healthy cells to that for cancer cells) ([2]; BALB/3T3 vs MCF-7, ES-2, A549, range) | effect stronger than reference cisplatin (times) ([3]; A549) | IC50 ([3]; A549, hypoxia (1% O2)) [µM]
1.43 ± 0.16, | Cn1cc([N+](=O)[O-])c[n+]1[Pt@SP3-2]([Cl])([Cl])[n+]1cc([N+](=O)[O-])cn1C [Compound 2, trans-dichloridobis(1-methyl-4-nitropyrazole)platinum(II)] | 32 ± 6 | 8.19 ± 2.9 |  | 3.7 ± 2.9 | 2.2–11.7 | 2.6 | 7.7 ± 7.4
−0.31 ± 0.04 | Cn1c([N+](=O)[O-])cc[n+]1[Pt@SP2-2]([Cl])([Cl])[n+]1ccc([N+](=O)[O-])n1C [Compound 3, cis-dichloridobis(1-methyl-5-nitropyrazole)platinum(II)] | 82 ± 11 | > 100 | inactive | 53.4 ± 10 |  |  | 
0.46 ± 0.00 | Cn1c([N+](=O)[O-])cc[n+]1[Pt@SP3-2]([Cl])([Cl])[n+]1ccc([N+](=O)[O-])n1C [Compound 4, trans-dichloridobis(1-methyl-5-nitropyrazole)platinum(II)] | 83 ± 12 | 74.4 ± 23.2 | inactive | 31 ± 9.5 |  |  | 

Compound | logP ± SD [1] | Total Cellular Platinum Uptake in MCF-7 Cells (± SD) (MCF-7 cells) [ng Pt/10^6 Cells] | IC50 [2] [µM] | IC50 ± SD ([3]; A549, hypoxia (1% O2)) | IC50 ([3]; A549, normoxia) [µM] | selectivity index (SI; ratio of cytotoxic concentration for healthy cells to that for cancer cells) ([2]; BALB/3T3 vs MCF-7, ES-2, A549, range) | effect stronger than reference cisplatin (times) ([3]; A549) | IC50 ([3]; A549, hypoxia (1% O2)) [µM]
Cn1cc([N+](=O)[O-])c[n+]1[Pt@SP2-2]([Cl])([Cl])[n+]1cc([N+](=O)[O-])cn1C [Compound 1, cis-dichloridobis(1-methyl-4-nitropyrazole)platinum(II)] | −0.35 ± 0.04 | 27 ± 6 | > 100 | inactive | 103 ± 28.8 |  |  | 

Reference: PMC7768359, “Synthesis of Platinum(II) Complexes with Some 1-Methylnitropyrazoles and In Vitro Research on Their Cytotoxic Activity” (Pharmaceuticals, 2020)
